Data: PubChem BioAssay (NCI)
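Interpolation was linear, between the two tested concentrations surrounding the appropriate level; five concentrations were tested over 48 hours in 96-well plates. GI50: concentration for 50% inhibition of growth. TGI: total growth inhibition.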

Experiments:
Assay in all cases: growth of human tumour cells (NCI), 48 h
U251 CNS = test system: U251 CNS
DLD-1 colon = test system: DLD-1 colon
CAKI-1 renal = test system: CAKI-1 renal
SNB-78 CNS = test system: SNB-78 CNS
XF 498 CNS = test system: XF 498 CNS
RXF 393 renal = test system: RXF 393 renal
HCT-15 colon = test system: HCT-15 colon
HCT-116 colon = test system: HCT-116 colon
SK-MEL-28 melanoma = test system: SK-MEL-28 melanoma
DMS 114 small cell lung = test system: DMS 114 small cell lung
A498 renal = test system: A498 renal
BT-549 breast = test system: BT-549 breast

## COc1ccc(C2=C(Cl)c3cc(OC)c(OC)cc3C2Cl)cc1OC (centres undefined)
U251 CNS
  TGI: 29 µM
DLD-1 colon
  TGI: 34.9 µM
CAKI-1 renal
  TGI: 35.2 µM
SNB-78 CNS
  TGI: 75.5 µM
XF 498 CNS
  TGI: 29.4 µM
RXF 393 renal
  TGI: 35.3 µM
HCT-15 colon
  TGI: 55.6 µM
HCT-116 colon
  TGI: 30.3 µM
SK-MEL-28 melanoma
  TGI: 34.5 µM

## CN(C)c1ccc(C=C2C(=O)OC(C)(C)OC2=O)cc1Br
U251 CNS
  TGI: > 100 µM
DLD-1 colon
  TGI: > 100 µM
CAKI-1 renal
  TGI: > 100 µM
XF 498 CNS
  TGI: > 100 µM
RXF 393 renal
  TGI: > 100 µM
DMS 114 small cell lung
  TGI: > 100 µM
HCT-116 colon
  TGI: > 100 µM
SK-MEL-28 melanoma
  TGI: > 100 µM

## Cc1cc(N(CCC#N)CCC#N)ccc1/C=C/C(=O)Nc1cccc(Cl)c1
U251 CNS
  TGI: > 100 µM
DLD-1 colon
  TGI: > 100 µM
CAKI-1 renal
  TGI: > 100 µM
XF 498 CNS
  TGI: > 100 µM
A498 renal
  TGI: > 100 µM
HCT-15 colon
  TGI: > 100 µM
DMS 114 small cell lung
  TGI: > 100 µM
HCT-116 colon
  TGI: > 100 µM
SK-MEL-28 melanoma
  TGI: > 100 µM

## COc1ccc(N=c2ssc3c(=S)ssc23)cc1
U251 CNS
  TGI: 96.7 µM
DLD-1 colon
  TGI: 54.5 µM
CAKI-1 renal
  TGI: > 100 µM
SNB-78 CNS
  TGI: 99.4 µM
RXF 393 renal
  TGI: 38.7 µM
HCT-15 colon
  TGI: 52.5 µM
DMS 114 small cell lung
  TGI: 26 µM
HCT-116 colon
  TGI: > 100 µM
SK-MEL-28 melanoma
  TGI: 55.6 µM

## CSCC1CC(c2ccc(Cl)cc2)=NO1 (centres undefined)
U251 CNS
  TGI: > 100 µM
DLD-1 colon
  TGI: > 100 µM
CAKI-1 renal
  TGI: > 100 µM
SNB-78 CNS
  TGI: > 100 µM
A498 renal
  TGI: > 100 µM
HCT-15 colon
  TGI: > 100 µM
DMS 114 small cell lung
  TGI: > 100 µM
HCT-116 colon
  TGI: > 100 µM
SK-MEL-28 melanoma
  TGI: > 100 µM

## CC(=O)C1=CSC2[C@H](NC(=O)Cc3ccccc3)C(=O)N2C1C(=O)OC(c1ccccc1)c1ccccc1 (some centres undefined)
DLD-1 colon
  TGI: > 100 µM
CAKI-1 renal
  TGI: > 100 µM
SNB-78 CNS
  TGI: > 100 µM
XF 498 CNS
  TGI: > 100 µM
A498 renal
  TGI: > 100 µM
DMS 114 small cell lung
  TGI: > 100 µM
HCT-116 colon
  TGI: > 100 µM
SK-MEL-28 melanoma
  TGI: > 100 µM

## CCOC1(COP(=O)(OCc2ccccc2)OCc2ccccc2)COC(COP(=O)(OCc2ccccc2)OCc2ccccc2)(OCC)CO1 (centres undefined)
U251 CNS
  TGI: > 100 µM
DLD-1 colon
  TGI: > 100 µM
CAKI-1 renal
  TGI: > 100 µM
SNB-78 CNS
  TGI: > 100 µM
XF 498 CNS
  TGI: > 100 µM
RXF 393 renal
  TGI: > 100 µM
HCT-15 colon
  TGI: > 100 µM
HCT-116 colon
  TGI: > 100 µM
SK-MEL-28 melanoma
  TGI: > 100 µM

## O=C1OC(CCCl)(c2ccccc2)CC1CN1CCOCC1 (centres undefined)
U251 CNS
  TGI: > 100 µM
DLD-1 colon
  TGI: 34 µM
CAKI-1 renal
  TGI: 24.6 µM
SNB-78 CNS
  TGI: 81.5 µM
XF 498 CNS
  TGI: 29.3 µM
RXF 393 renal
  TGI: 30.9 µM
A498 renal
  TGI: > 100 µM
HCT-15 colon
  TGI: 55.5 µM
DMS 114 small cell lung
  TGI: 42.9 µM
SK-MEL-28 melanoma
  TGI: 36.9 µM

## CCOC(=O)C1=C(O)C(=O)c2ccsc2C1=O
U251 CNS
  TGI: > 100 µM
DLD-1 colon
  TGI: > 100 µM
CAKI-1 renal
  TGI: > 100 µM
SNB-78 CNS
  TGI: > 100 µM
RXF 393 renal
  TGI: > 100 µM
A498 renal
  TGI: > 100 µM
HCT-15 colon
  TGI: > 100 µM
DMS 114 small cell lung
  TGI: > 100 µM
HCT-116 colon
  TGI: > 100 µM
SK-MEL-28 melanoma
  TGI: > 100 µM

## COc1ccc(OC)c(NC(=O)CCC/C(CC(=O)c2ccc(O)c(OC)c2)=N\NC(=O)C[N+](C)(C)C)c1
U251 CNS
  TGI: > 100 µM
DLD-1 colon
  TGI: > 100 µM
CAKI-1 renal
  TGI: > 100 µM
XF 498 CNS
  TGI: > 100 µM
A498 renal
  TGI: > 100 µM
HCT-15 colon
  TGI: > 100 µM
DMS 114 small cell lung
  TGI: > 100 µM
SK-MEL-28 melanoma
  TGI: > 100 µM

## CN(C)c1nc(=Nc2ccc3ccccc3c2)ss1
U251 CNS
  TGI: > 100 µM
DLD-1 colon
  TGI: > 100 µM
CAKI-1 renal
  TGI: > 100 µM
SNB-78 CNS
  TGI: > 100 µM
RXF 393 renal
  TGI: > 100 µM
A498 renal
  TGI: > 100 µM
HCT-15 colon
  TGI: > 100 µM
DMS 114 small cell lung
  TGI: 41.3 µM
HCT-116 colon
  TGI: > 100 µM
SK-MEL-28 melanoma
  TGI: > 100 µM

## CCOC(=O)C(=O)Nc1c(CC)cccc1C(C)C
U251 CNS
  TGI: > 100 µM
DLD-1 colon
  TGI: > 100 µM
CAKI-1 renal
  TGI: > 100 µM
SNB-78 CNS
  TGI: > 100 µM
XF 498 CNS
  TGI: > 100 µM
RXF 393 renal
  TGI: > 100 µM
A498 renal
  TGI: > 100 µM
HCT-15 colon
  TGI: > 100 µM
HCT-116 colon
  TGI: > 100 µM
SK-MEL-28 melanoma
  TGI: > 100 µM

## Cc1cc2c(C)n(Cc3ccc(Cl)cc3Cl)nc2c(C#N)c1C
U251 CNS
  TGI: > 61.9 µM
DLD-1 colon
  TGI: > 100 µM
CAKI-1 renal
  TGI: > 100 µM
SNB-78 CNS
  TGI: > 76.4 µM
XF 498 CNS
  TGI: 23 µM
RXF 393 renal
  TGI: 57.3 µM
A498 renal
  TGI: > 100 µM
HCT-15 colon
  TGI: > 100 µM
DMS 114 small cell lung
  TGI: > 100 µM
HCT-116 colon
  TGI: > 100 µM
SK-MEL-28 melanoma
  TGI: > 100 µM

## COc1cc(C(=O)C/C(CCC(=O)Nc2ccccc2[N+](=O)[O-])=N\NC(=O)CC#N)ccc1O
DLD-1 colon
  TGI: > 100 µM
CAKI-1 renal
  TGI: > 100 µM
XF 498 CNS
  TGI: > 100 µM
RXF 393 renal
  TGI: > 100 µM
A498 renal
  TGI: > 100 µM
HCT-15 colon
  TGI: > 100 µM
SK-MEL-28 melanoma
  TGI: > 100 µM

## Cn1c(/C=C(\O)c2ccc(Cl)cc2)nc2ccccc21
U251 CNS
  TGI: > 100 µM
DLD-1 colon
  TGI: > 100 µM
CAKI-1 renal
  TGI: 97 µM
SNB-78 CNS
  TGI: > 100 µM
XF 498 CNS
  TGI: > 100 µM
RXF 393 renal
  TGI: > 100 µM
HCT-15 colon
  TGI: > 100 µM
HCT-116 colon
  TGI: > 100 µM
SK-MEL-28 melanoma
  TGI: > 100 µM

## CCOc1ccc2nc(NC(=O)c3c/c(=N\NC(=O)C[N+](C)(C)C)c4ccc(O)cc4o3)sc2c1
U251 CNS
  TGI: 10.5 µM
DLD-1 colon
  TGI: 13.4 µM
CAKI-1 renal
  TGI: 18.6 µM
SNB-78 CNS
  TGI: 15.5 µM
XF 498 CNS
  TGI: 6.14 µM
RXF 393 renal
  TGI: 14.4 µM
A498 renal
  TGI: 28 µM
HCT-15 colon
  TGI: 20 µM
DMS 114 small cell lung
  TGI: 4.51 µM
HCT-116 colon
  TGI: > 29.8 µM
SK-MEL-28 melanoma
  TGI: 13 µM

## CCOC(=O)c1nc2ccc([N+](=O)[O-])cc2c2c1CCO2
U251 CNS
  TGI: > 100 µM
DLD-1 colon
  TGI: > 100 µM
CAKI-1 renal
  TGI: > 100 µM
SNB-78 CNS
  TGI: > 100 µM
XF 498 CNS
  TGI: > 100 µM
RXF 393 renal
  TGI: > 100 µM
A498 renal
  TGI: > 100 µM
HCT-15 colon
  TGI: > 100 µM
DMS 114 small cell lung
  TGI: > 100 µM
HCT-116 colon
  TGI: > 100 µM
SK-MEL-28 melanoma
  TGI: > 100 µM

## Cc1ccc(C2=NOC3=c4ccccc4=CSC3=C2c2ccc([N+](=O)[O-])cc2)cc1
U251 CNS
  GI50: 10.3 µM
  TGI: 36.1 µM
CAKI-1 renal
  GI50: 16.8 µM
  TGI: 46.8 µM
BT-549 breast
  GI50: 19.1 µM
  TGI: 46.2 µM
RXF 393 renal
  GI50: 18.7 µM
  TGI: 64.6 µM
A498 renal
  GI50: 10.8 µM
  TGI: 26.9 µM
HCT-15 colon
  GI50: 33.2 µM
  TGI: > 100 µM
HCT-116 colon
  GI50: 3.35 µM
  TGI: > 100 µM
SK-MEL-28 melanoma
  GI50: > 100 µM
  TGI: > 100 µM
